From PubChem BioAssay AID248 (DTP/NCI, 2004)
Values joined by “and” are separate entries in the source; they are usually repeats but may differ in a detail not shown here. Equal values may be shown once. Inconclusive results and toxic doses are left out. No stated cut-off is given here; in the data, active means T/C of 150% or more; inactive means T/C below 125%.

Tested on: L1210 leukemia ip in BDF1 mice, survival T/C
Test: NCI In Vivo Anticancer Drug Screen. Data for tumor model L1210 Leukemia (intraperitoneal) in B6D2F1 (BDF1) mice
Details: endpoint: mean survival time, higher = longer survival
Summary of the method: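 Mice bearing the transplanted tumor received compound or vehicle. Survival of the treated group was divided by that of the vehicle-treated control group to give the ratio.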

[1] = dose: 100.0 mg/kg/injection, schedule: Q04DX002 (ip), vehicle: saline with Tween-80
[2] = dose: 200.0 mg/kg/injection, schedule: Q04DX002 (ip), vehicle: saline with Tween-80
[3] = dose: 400.0 mg/kg/injection, schedule: Q04DX002 (ip), vehicle: saline with Tween-80
[4] = dose: 100.0 mg/kg/injection, schedule: Q01DX001 (ip), vehicle: saline
[5] = dose: 200.0 mg/kg/injection, schedule: Q01DX001 (ip), vehicle: saline
[6] = dose: 400.0 mg/kg/injection, schedule: Q01DX001 (ip), vehicle: saline
[7] = dose: 100.0 mg/kg/injection, schedule: Q01DX001 (ip), vehicle: carboxymethylcellulose (CMC)
[8] = dose: 200.0 mg/kg/injection, schedule: Q01DX001 (ip), vehicle: carboxymethylcellulose (CMC)
[9] = dose: 400.0 mg/kg/injection, schedule: Q01DX001 (ip), vehicle: carboxymethylcellulose (CMC)
[10] = dose: 100.0 mg/kg/injection, schedule: Q01DX001 (ip), vehicle: Klucel (hydroxypropylcellulose) (HPC)
[11] = dose: 200.0 mg/kg/injection, schedule: Q01DX001 (ip), vehicle: Klucel (hydroxypropylcellulose) (HPC)
[12] = dose: 50.0 mg/kg/injection, schedule: Q04DX003 (ip), vehicle: saline
[13] = dose: 100.0 mg/kg/injection, schedule: Q04DX003 (ip), vehicle: saline

Measured: T/C

CC(C)CC(=O)/C=C/C=C/c1ccccc1
inactive: [1] 101 % of control | [2] 95 % of control | [3] 111 % of control

Nc1ccc(C(=O)Nc2cccc(S(=O)(=O)F)c2)cc1
inactive: [4] 107 % of control | [5] 106 % of control | [6] 90 % of control

NC(=O)c1ccccc1NC(=O)Nc1ccc(F)cc1
inactive: [7] 104 % of control | dose: 100.0 mg/kg/injection, schedule: Q01DX009 (ip), vehicle: carboxymethylcellulose (CMC) 102 % of control and 105 % of control | dose: 100.0 mg/kg/injection, schedule: Q04DX002 (ip), vehicle: carboxymethylcellulose (CMC) 100 % of control and 101 % of control | dose: 100.0 mg/kg/injection, schedule: Q04DX003 (ip), vehicle: carboxymethylcellulose (CMC) 95 % of control | [8] 101 % of control | dose: 200.0 mg/kg/injection, schedule: Q01DX009 (ip), vehicle: carboxymethylcellulose (CMC) 98 % of control and 105 % of control | dose: 200.0 mg/kg/injection, schedule: Q04DX002 (ip), vehicle: carboxymethylcellulose (CMC) 101 % of control and 107 % of control | dose: 200.0 mg/kg/injection, schedule: Q04DX003 (ip), vehicle: carboxymethylcellulose (CMC) 102 % of control | [9] 93 % of control | dose: 400.0 mg/kg/injection, schedule: Q01DX009 (ip), vehicle: carboxymethylcellulose (CMC) 94 % of control and 102 % of control | dose: 400.0 mg/kg/injection, schedule: Q04DX002 (ip), vehicle: carboxymethylcellulose (CMC) 93 % of control and 96 % of control | dose: 400.0 mg/kg/injection, schedule: Q04DX003 (ip), vehicle: carboxymethylcellulose (CMC) 91 % of control

O=C1C2=C(CCC2)c2ccccc21
inactive: [4] 103 % of control | [5] 96 % of control

COC(=O)C1=CNC=C(C(=O)OC)C1c1ccccc1
inactive: dose: 100.0 mg/kg/injection, schedule: Q04DX003 (ip), vehicle: saline with Tween-80 96 % of control | dose: 200.0 mg/kg/injection, schedule: Q04DX003 (ip), vehicle: saline with Tween-80 96 % of control | dose: 400.0 mg/kg/injection, schedule: Q04DX003 (ip), vehicle: saline with Tween-80 98 % of control

Cc1ccc(S(=O)(=O)OC2(C(=O)c3ccccc3)CC3CCC2C3)cc1 (configuration not stated)
inactive: dose: 50.0 mg/kg/injection, schedule: Q01DX001 (ip), vehicle: Klucel (hydroxypropylcellulose) (HPC) 93 % of control | [10] 96 % of control | [11] 94 % of control

CC(C)(C)OC(=O)N1C2C=CC(C2)N1C(=O)OC(C)(C)C
inactive: dose: 100.0 mg/kg/injection, schedule: Q01DX001 (ip), vehicle: other 101 % of control | dose: 100.0 mg/kg/injection, schedule: Q04DX003 (ip), vehicle: Klucel (hydroxypropylcellulose) (HPC) 102 % of control | dose: 200.0 mg/kg/injection, schedule: Q01DX001 (ip), vehicle: other 104 % of control | dose: 200.0 mg/kg/injection, schedule: Q04DX003 (ip), vehicle: Klucel (hydroxypropylcellulose) (HPC) 98 % of control | dose: 400.0 mg/kg/injection, schedule: Q01DX001 (ip), vehicle: other 96 % of control | dose: 400.0 mg/kg/injection, schedule: Q04DX003 (ip), vehicle: Klucel (hydroxypropylcellulose) (HPC) 109 % of control

C[NH-].C[NH-].C[NH-].[Cl][Rh]([Cl])[Cl]
inactive: dose: 25.0 mg/kg/injection, schedule: Q04DX003 (ip), vehicle: saline 96 % of control | [12] 96 % of control | [13] 96 % of control

Oc1cccc2ccc(Cl)nc12
inactive: dose: 75.0 mg/kg/injection, schedule: Q01DX001 (ip), vehicle: carboxymethylcellulose (CMC) 97 % of control | dose: 150.0 mg/kg/injection, schedule: Q01DX001 (ip), vehicle: carboxymethylcellulose (CMC) 101 % of control | dose: 300.0 mg/kg/injection, schedule: Q01DX001 (ip), vehicle: carboxymethylcellulose (CMC) 97 % of control

Cc1ccc(S(=O)(=O)ON/N=C2\C(=O)C3CCC2C3)cc1 (configuration not stated)
inactive: [1] 95 % of control

CC1(C)COC(Cc2ccccc2)=N1
inactive: dose: 25.0 mg/kg/injection, schedule: Q01DX009 (ip), vehicle: saline 98 % of control | dose: 50.0 mg/kg/injection, schedule: Q01DX009 (ip), vehicle: saline 104 % of control | [12] 96 % of control | dose: 100.0 mg/kg/injection, schedule: Q01DX009 (ip), vehicle: saline 102 % of control | [13] 94 % of control | dose: 200.0 mg/kg/injection, schedule: Q01DX009 (ip), vehicle: saline 101 % of control | dose: 200.0 mg/kg/injection, schedule: Q04DX003 (ip), vehicle: saline 91 % of control

Cc1ccnc(NS(=O)(=O)c2ccc(N=Nc3ccc(N)nc3N)cc2)n1
inactive: [4] 100 % of control | [5] 102 % of control | [6] 100 % of control

COc1cc2ccc3c4cc5c(cc4c[n+](C)c3c2cc1OC)OCO5
inactive: dose: 10.0 mg/kg/injection, schedule: Q01DX009 (ip), vehicle: saline 124 % of control | dose: 20.0 mg/kg/injection, schedule: Q01DX009 (ip), vehicle: saline 112 % of control | dose: 40.0 mg/kg/injection, schedule: Q01DX009 (ip), vehicle: saline 122 % of control

CC(=O)OC1CC23CCC(=O)C2(CC3)C1 (configuration not stated)
inactive: [1] 99 % of control | [2] 111 % of control | [3] 99 % of control

N=C(N)c1cccc(OCCCc2ccccc2)c1
inactive: [10] 100 % of control | [11] 97 % of control | dose: 400.0 mg/kg/injection, schedule: Q01DX001 (ip), vehicle: Klucel (hydroxypropylcellulose) (HPC) 100 % of control

COCCN1CCC(CO)C1 (configuration not stated)
inactive: [4] 93 % of control | [5] 98 % of control | [6] 93 % of control

FC(F)(F)c1ccc2c(c1)N(CCCN1CCN(CCOc3ccccc3)CC1)c1ccccc1S2
inactive: dose: 6.25 mg/kg/injection, schedule: Q04DX003 (ip), vehicle: saline 105 % of control | dose: 8.2 mg/kg/injection, schedule: Q04DX003 (ip), vehicle: saline 97 % of control and 98 % of control | dose: 12.5 mg/kg/injection, schedule: Q04DX003 (ip), vehicle: saline 104 % of control | dose: 18.0 mg/kg/injection, schedule: Q04DX003 (ip), vehicle: saline 101 % of control and 102 % of control

C=CC(C)C(C)CC (configuration not stated)
inactive: dose: 50.0 mg/kg/injection, schedule: Q01DX001 (ip), vehicle: carboxymethylcellulose (CMC) 104 % of control | [7] 95 % of control | [8] 93 % of control | [9] 101 % of control

CCN(CC)C(=S)SCn1nc(Cl)c2ccc([N+](=O)[O-])cc21
inactive: [4] 98 % of control | [5] 98 % of control | [6] 91 % of control

O=C1CCCC(=O)NNC(=O)Nc2ccc(cc2)Cc2ccc(cc2)NC(=O)NN1
inactive: dose: 50.0 mg/kg/injection, schedule: Q01DX001 (ip), vehicle: saline 104 % of control | [4] 90 % of control | [5] 93 % of control | [6] 93 % of control

Nc1nccnc1Nc1ccccc1
inactive: dose: 75.0 mg/kg/injection, schedule: Q01DX001 (ip), vehicle: other 100 % of control | dose: 150.0 mg/kg/injection, schedule: Q01DX001 (ip), vehicle: other 100 % of control | dose: 300.0 mg/kg/injection, schedule: Q01DX001 (ip), vehicle: other 100 % of control

CC1(C)N=C(N)N=C(N)N1c1cccc(OCCOc2ccc(N)cc2)c1
inactive: dose: 10.0 mg/kg/injection, schedule: Q01DX001 (ip), vehicle: saline 94 % of control | dose: 20.0 mg/kg/injection, schedule: Q01DX001 (ip), vehicle: saline 96 % of control | dose: 40.0 mg/kg/injection, schedule: Q01DX001 (ip), vehicle: saline 102 % of control
